In test [1] the test system is Th17- and Treg cells in splenocytes. Kind of test: Th17 and Treg cells, pSTAT3 and pSTAT5 in splenocytes of CIA mice by immunostaining and confocal microscope. The test is classed as in vivo, mouse. The procedure:
(§1) For the construction of a mouse model with collagen-induced arthritis (hereinafter, referred to as “CIA”), a 6-week old male DBA/1J mouse was subjected to primary immunization by intradermal injection after mixing the bovine type II collagen (hereinafter, referred to as “CII”) and complete Freud's adjuvant (CFA) in an amount of 100 μL, respectively. After a week thereafter, halofuginone was injected intraperitoneally at 3 day intervals at a concentration of 100 μg/kg and 500 μg/kg, respectively (9 weeks).
To examine the effect of halofuginone treatment in an animal model on Th17 and Treg factors, the measurement was performed using a confocal microscope after the immunostaining. Specifically, the spleens of the mice in the experimental group and control group in Examples were collected and embedded with an OCT compound, and the tissues rapidly cooled using liquid nitrogen were sliced into a thickness of 7 μm using a cryo microtome, and attached to slides. The sliced sections attached to the slides were fixed with acetone, and non-specific binding was blocked by reacting with 10% normal goat serum for 30 minutes. The first antibodies, i.e., FITC-labeled anti-Foxp3 Ab, PElabeled anti-IL-17 Ab APC-labeled anti-CD4 Ab, Allophycocyanin-labeled anti-CD25 Ab (Biolegend), biotinylated anti-CD4 Ab (BD Biosciences, San Jose, Calif., USA), were diluted in PBS (pH 7.5) at a 1:100 ratio and reacted at 4° C. overnight. On the next day, the resultant was washed with PBS and reacted with streptavidin cy-3 at room temperature for 2 hours. The stained tissues were analyzed using a confocal microscope (LSM 510 Meta. Zeiss, Gottingen, Germany), and the number of IL-17+ cells and Foxp3+ cells were scored under a microscopic observation, and the results are shown in graphs. Meanwhile, pSTAT3 and pSTAT5 were immunostained in the same manner as described above and the measurement was performed using a confocal microscope, and in particular, PE-conjugated anti-phospho-Stat3 (Y705 and S727; 1:50), and Alexa Fluor 488-conjugated anti-phospho-Stat5 (Y694; 1:100) (all from BD Biosciences) antibodies were used.

The test system of test [2] is Rcan3 and Sox6. Kind of test: Expression of Rcan3 and Sox6 in joint tissue of CII-immunized DBA/1J mice by immunohistochemical staining. The test is classed as in vivo, mouse. The settings on record: 500 μg/kg intraperitoneally, 50 days, vs untreated group, FIG. 7. The text has this:
Furthermore, to examine whether the halofuginone compound of the present invention can promote the differentiation and the activity of osteoblasts, the present inventors performed the following experiment for the purpose of confirming the effect of the halofuginone compound on the expression and the activity of Rcan3 and Sox6, which are factors associated with the differentiation of osteoblasts. Specifically, the DBA/1J mice were subjected to the primary immunization by intradermally injecting bovine type II collagen (hereinafter, “CII”) in an amount of 100 μL, and one week thereafter, injected intraperitoneally with halofuginone (500 μg/kg). Fifty days thereafter, the mice were sacrificed, and the expression levels of Rcan3 and Sox6 in the joint tissue of the mice were confirmed via immunohistochemical staining method. The group of mice not treated with halofuginone was used as the control group.
The immunohistochemical staining method was performed as follows. The joints of the mice group used above were collected, fixed with 10% neutral buffered formalin, the bones were decalcified with Calci-Clear Rapid bone decalcifier and embedded in paraffin, the joint tissue was prepared into 7 μm-thick slices and attached to slides. […]

Test [3] concerns osteoclasts. Briefly: Cell cycle during osteoclast differentiation by 7-AAD and BrdU staining. It counts as cell-based, mouse. To be noted: FIG. 5D. The text has this: Murine bone marrow cells were differentiated for 5 days by stimulating with M-CSF, RANKL, and halofuginone and subjected to TRAP staining according to the method described in Example <1-8> to confirm the number of TRAP positive cells. Additionally, the expression of c-Fos, JunB, and Jpd2 in the bone marrow cells were confirmed by real-time PCR according to the method described in Example <1-6>. Meanwhile, to examine the effect of halofuginone on cell cycle during the process of osteoclast differentiation, osteoclasts were subjected to 7-AAD and BrdU staining.
A general note: Incorporation of labelled thymidine or its analogues reports DNA synthesis.

For test [4], the system named is mouse model with collagen-induced arthritis. Briefly: Arthritis index score in mouse model with collagen-induced arthritis (CIA). The test is classed as in vivo. On the procedure: as §1
To examine the therapeutic effect of treating halofuginone of the present invention on arthritis, the clinical score of the joint inflammation of the mouse prepared in Example <1-1> (the mouse with arthritis injected with halofuginone) was measured while observing the mouse. The group treated with a solution in which DMSO was diluted in saline was used as the control group.
The clinical score was evaluated using a clinical score system, in which the respective score for swelling and redness on toes or caudal regions was determined by observing daily the degree of the progress of the joint inflammation on the arthritis lesion of the mouse by the naked eye.

Test [5] relates to IL-17 and IL-6. Kind of test: Inflammatory cytokines IL-17 and IL-6 in joint tissue staining / sera ELISA of CIA mice. The test is classed as in vivo, mouse. To be noted: FIG. 1C. On the procedure: as §1
The subject of test [6] is IL-17 production of T cells via IDO in dendritic cells. Briefly: IL-17 ELISA in co-culture of halofuginone-stimulated dendritic cells and T cells. It counts as cell-based. The procedure:
The dendritic cells cultured for 2 days after stimulating with halofuginone and the T cells cultured for 2 days under the condition of differentiating Th17 cells of <2-2> were co-cultured for 2 additional days, and IL-17 was measured using the supernatant by ELISA. That is, the supernatants of the cell cultures were collected and the amount of IL-17 was measured via sandwich ELISA method. To this end, first, the 96-well plate was treated with monoclonal anti-IL-17 ([…]) and reacted at 4° C. overnight, and upon reaction, non-specific binding was blocked using a blocking solution (1% BSA/PBST). Then, IL-17 in a half amount was diluted continuously and used as standards, and the supernatants of cell cultures were reacted at room temperature for 2 hours. Then, the biotinylated anti-IL-17 were reacted at room temperature for 2 hours, washed 4 times, and added with ExtraAvidin-alkaline phosphatase conjugate after dilution, and reacted at room temperature for 2 hours. Subsequently, PNPP/DEA solution was added thereto to develop color and the absorbance was measured at 405 nm.
Background: In an ELISA, binding on a coated surface is turned into a signal by an enzyme label.

Where [7] appears, read: CD4+ cells of splenocytes of CIA mice, immunostaining.
The mark [8] stands for this setting: splenocytes of CIA mice injected with halofuginone, FIG. 2A.

Turning to `O=C(C[C@H]1NCCC[C@@H]1O)Cn1cnc2cc(Br)c(Cl)cc2c1=O` (racemic) [halofuginone], in test [1] (setting [7]), the “expression of pSTAT3” value is “decreased” and the “expression of pSTAT5” value was “increased”. In addition, in test [1] (setting [8]), the “number of Th17 cells” value is on record as “decreased” and the “number of Treg cells” value was “increased”. For the same compound, in test [2], the “expression of Rcan3” value is on record as “significant increase” and the “expression of Sox6” value is given as “significant increase”. The “progress from G0/G1 into S phase” value in test [3] (7-AAD and BrdU staining) is given as “increased”. Besides, the “expression of ccnd1 encoding Cyclin D1” value in test [3] was “increased”. In addition, in test [4] (CIA DBA/1J mice, 100 and 500 μg/kg intraperitoneally at 3 day intervals, vs DMSO in saline control, FIG. 1A), the arthritis index score entry is reported as “decrease in the arthritis index score in a dose-dependent manner”. In test [4] (CIA mice, 500 μg/kg), the “arthritis lesion by the naked eye” value is reported as “no arthritis lesion at all”. In test [5], the “level of inflammatory cytokine IL-6” value is on record as “significantly decrease” and the “level of inflammatory cytokine IL-17” value is listed as “significantly decrease”. In test [6] (FIG. 3D legend), the “IDO expression in dendritic cells” value was “increase”. The “production of IL-17” value in test [6] (T cells co-cultured with dendritic cells co-stimulated with 1-MT (an IDO inhibitor) and halofuginone) is “no decrease”. Besides, in test [6] (T cells co-cultured with dendritic cells stimulated with halofuginone, FIG. 3D), the “production of IL-17” value was “decrease”.
